Several values for one entry are separate records, joined by “and”; a condition that tells them apart may be missing. Equal values may be shown once. Toxic doses and inconclusive results are not listed. The calls were made as follows: active = survival T/C of 150% or more; inactive = T/C below 125% in these data. Square brackets hold non-standard residues; d marks the D form. Peptide text beside a SMILES is read from it. Tyr(3-NO2) = N[CH](Cc1ccc(O)c([N+](=O)[O-])c1)C(=O)O
System: P388 leukemia ip, CD2F1 mice, survival T/C
Test: NCI In Vivo Anticancer Drug Screen. Data for tumor model P388 Leukemia (intraperitoneal) in CD2F1 (CDF1) mice
Conditions: endpoint: median survival time, higher = longer survival
Procedure, shortened: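 Mice carrying the transplanted tumor received test compound or vehicle. Survival was recorded in each group, and the value is the treated-group measurement divided by that of the vehicle-treated control group.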

[1] = dose: 60.0 mg/kg/injection, schedule: Q01DX005 (ip), vehicle: saline
[2] = dose: 120.0 mg/kg/injection, schedule: Q01DX005 (ip), vehicle: saline
[3] = dose: 60.0 mg/kg/injection, schedule: Q01DX005 (ip), vehicle: Klucel (hydroxypropylcellulose) (HPC)
[4] = dose: 120.0 mg/kg/injection, schedule: Q01DX005 (ip), vehicle: Klucel (hydroxypropylcellulose) (HPC)
[5] = dose: 240.0 mg/kg/injection, schedule: Q01DX005 (ip), vehicle: Klucel (hydroxypropylcellulose) (HPC)
[6] = dose: 50.0 mg/kg/injection, schedule: Q01DX005 (ip), vehicle: Klucel (hydroxypropylcellulose) (HPC)
[7] = dose: 100.0 mg/kg/injection, schedule: Q01DX005 (ip), vehicle: Klucel (hydroxypropylcellulose) (HPC)
[8] = dose: 200.0 mg/kg/injection, schedule: Q01DX005 (ip), vehicle: Klucel (hydroxypropylcellulose) (HPC)
[9] = dose: 240.0 mg/kg/injection, schedule: Q01DX005 (ip), vehicle: saline
[10] = dose: 50.0 mg/kg/injection, schedule: Q01DX009 (ip), vehicle: saline with Tween-80
[11] = dose: 100.0 mg/kg/injection, schedule: Q01DX009 (ip), vehicle: saline with Tween-80
[12] = dose: 200.0 mg/kg/injection, schedule: Q01DX009 (ip), vehicle: saline with Tween-80
[13] = dose: 25.0 mg/kg/injection, schedule: Q01DX009 (ip), vehicle: saline with Tween-80
[14] = dose: 50.0 mg/kg/injection, schedule: Q01DX009 (ip), vehicle: saline
[15] = dose: 200.0 mg/kg/injection, schedule: Q01DX009 (ip), vehicle: saline
[16] = dose: 12.5 mg/kg/injection, schedule: Q01DX009 (ip), vehicle: saline with Tween-80

Measured: T/C

CN(C)CC(CN(C)C)C(=O)C(C)(C)C
inactive: dose: 3.8 mg/kg/injection, schedule: Q01DX005 (ip), vehicle: saline 99 % of control | dose: 7.5 mg/kg/injection, schedule: Q01DX005 (ip), vehicle: saline 96 % of control | dose: 15.0 mg/kg/injection, schedule: Q01DX005 (ip), vehicle: saline 93 % of control | dose: 30.0 mg/kg/injection, schedule: Q01DX005 (ip), vehicle: saline 105 % of control | [1] 100 % of control and 104 % of control | [2] 104 % of control and 110 % of control

COc1c2c(cc3c1OCO3)CCN(C)C2
inactive: dose: 10.0 mg/kg/injection, schedule: Q01DX009 (ip), vehicle: saline 106 % of control | dose: 20.0 mg/kg/injection, schedule: Q01DX009 (ip), vehicle: saline 101 % of control | dose: 40.0 mg/kg/injection, schedule: Q01DX009 (ip), vehicle: saline 98 % of control | dose: 80.0 mg/kg/injection, schedule: Q01DX009 (ip), vehicle: saline 104 % of control

O=c1[nH]c2c([N+](=O)[O-])cc(Cl)cc2nc1/C=C(\O)c1cccc2ccccc12
inactive: [3] 101 % of control | [4] 102 % of control | [5] 105 % of control

c1ccc(CCn2c(-c3ccncc3)nc3ccccc32)nc1
inactive: dose: 25.0 mg/kg/injection, schedule: Q01DX005 (ip), vehicle: Klucel (hydroxypropylcellulose) (HPC) 109 % of control | [6] 104 % of control | [7] 107 % of control | [8] 105 % of control

O=C(c1ccccc1)C(Cl)C(Cl)c1ccccc1 (stereo unspecified)
inactive: dose: 25.0 mg/kg/injection, schedule: Q01DX005 (ip), vehicle: saline with Tween-80 102 % of control | dose: 50.0 mg/kg/injection, schedule: Q01DX005 (ip), vehicle: saline with Tween-80 105 % of control | dose: 100.0 mg/kg/injection, schedule: Q01DX005 (ip), vehicle: saline with Tween-80 101 % of control | dose: 200.0 mg/kg/injection, schedule: Q01DX005 (ip), vehicle: saline with Tween-80 100 % of control

NC1=N[C@H]2CS[C@@H](CCCCC(=O)ON3C(=O)CCC3=O)[C@H]2N1
inactive: [1] 98 % of control | [2] 100 % of control | [9] 98 % of control

C[n+]1ccc(C(=O)O)cc1 (tested in a mixture with another compound)
inactive: dose: 100.0 mg/kg/injection, schedule: Q04DX003 (ip), vehicle: saline 104 % of control | dose: 200.0 mg/kg/injection, schedule: Q04DX003 (ip), vehicle: saline 98 % of control | dose: 400.0 mg/kg/injection, schedule: Q04DX003 (ip), vehicle: saline 98 % of control

NC(=S)C1OC(COC(=O)c2ccccc2)C(OC(=O)c2ccccc2)C1OC(=O)c1ccccc1 (stereo unspecified)
inactive: [10] 96 % of control | [11] 94 % of control | [12] 102 % of control

Cc1ccc(S(=O)(=O)N/N=C/c2ccc(Cl)cc2O)cc1
inactive: dose: 12.5 mg/kg/injection, schedule: Q01DX005 (ip), vehicle: distilled water + Tween-80 102 % of control | dose: 25.0 mg/kg/injection, schedule: Q01DX005 (ip), vehicle: distilled water + Tween-80 99 % of control | dose: 50.0 mg/kg/injection, schedule: Q01DX005 (ip), vehicle: distilled water + Tween-80 100 % of control | dose: 100.0 mg/kg/injection, schedule: Q01DX005 (ip), vehicle: distilled water + Tween-80 100 % of control | dose: 200.0 mg/kg/injection, schedule: Q01DX005 (ip), vehicle: distilled water + Tween-80 100 % of control

CCN(CC)CC.[CH-]1CCCCC1.[CH-]1CCCCC1.[CH-]1CCCCC1.[Cl-].[N-]=C=NC(=O)NC1CCCCC1.[Sn+4]
inactive: dose: 1.5 mg/kg/injection, schedule: Q01DX005 (ip), vehicle: Klucel (hydroxypropylcellulose) (HPC) 92 % of control | dose: 3.0 mg/kg/injection, schedule: Q01DX005 (ip), vehicle: Klucel (hydroxypropylcellulose) (HPC) 92 % of control | dose: 6.0 mg/kg/injection, schedule: Q01DX005 (ip), vehicle: Klucel (hydroxypropylcellulose) (HPC) 102 % of control and 92 % of control

CN(C)CSCN(C)C
inactive: [13] 103 % of control and 93 % of control | [10] 100 % of control and 113 % of control | [11] 102 % of control and 123 % of control

NC(=S)c1ccc(/C=N/c2nc3ccccc3s2)cc1
inactive: dose: 25.0 mg/kg/injection, schedule: Q01DX001 (ip), vehicle: Klucel (hydroxypropylcellulose) (HPC) 103 % of control | dose: 50.0 mg/kg/injection, schedule: Q01DX001 (ip), vehicle: Klucel (hydroxypropylcellulose) (HPC) 97 % of control | dose: 100.0 mg/kg/injection, schedule: Q01DX001 (ip), vehicle: Klucel (hydroxypropylcellulose) (HPC) 96 % of control and 97 % of control | dose: 200.0 mg/kg/injection, schedule: Q01DX001 (ip), vehicle: Klucel (hydroxypropylcellulose) (HPC) 97 % of control | dose: 400.0 mg/kg/injection, schedule: Q01DX001 (ip), vehicle: Klucel (hydroxypropylcellulose) (HPC) 97 % of control

Cc1ccc2c(c1)-c1oc(=O)c(C(N)=O)cc1C(C)O2 (stereo unspecified)
inactive: dose: 60.0 mg/kg/injection, schedule: Q01DX005 (ip), vehicle: saline with Tween-80 92 % of control | dose: 120.0 mg/kg/injection, schedule: Q01DX005 (ip), vehicle: saline with Tween-80 89 % of control | dose: 240.0 mg/kg/injection, schedule: Q01DX005 (ip), vehicle: saline with Tween-80 87 % of control

COc1ccc(N2C(=O)/C(=C/c3ccccc3)N=C2/C=C/c2ccc(Cl)cc2)cc1
inactive: dose: 15.0 mg/kg/injection, schedule: Q01DX005 (ip), vehicle: Klucel + Tween-80 93 % of control | dose: 30.0 mg/kg/injection, schedule: Q01DX005 (ip), vehicle: Klucel + Tween-80 95 % of control | dose: 60.0 mg/kg/injection, schedule: Q01DX005 (ip), vehicle: Klucel + Tween-80 107 % of control and 96 % of control

Cc1noc(C)c1CON
inactive: dose: 75.0 mg/kg/injection, schedule: Q01DX009 (ip), vehicle: saline with Tween-80 91 % of control | dose: 75.0 mg/kg/injection, schedule: Q04DX003 (ip), vehicle: saline 95 % of control | dose: 150.0 mg/kg/injection, schedule: Q04DX003 (ip), vehicle: saline 95 % of control | dose: 300.0 mg/kg/injection, schedule: Q04DX003 (ip), vehicle: saline 91 % of control

NC(=O)C(Cc1ccc(O)c([N+](=O)[O-])c1)NC(=O)C(N)Cc1ccccc1 (stereo unspecified) (H-Phe-[Tyr(3-NO2)]-NH2; configuration not given here)
inactive: [6] 103 % of control | [7] 96 % of control | [8] 96 % of control

CC(C)=NNC1=NC(C)(C)P(=O)(NCC(=O)O)S1 (stereo unspecified)
inactive: [1] 103 % of control | [2] 103 % of control | [9] 100 % of control

CCOC(=O)/C=C1\CCCn2c1ncc(C(=O)OCC)c2=O
inactive: [3] 101 % of control | [4] 100 % of control | [5] 108 % of control

Cc1cccn2cc(CC(=O)O)nc12
inactive: dose: 100.0 mg/kg/injection, schedule: Q01DX001 (ip), vehicle: saline 105 % of control | dose: 200.0 mg/kg/injection, schedule: Q01DX001 (ip), vehicle: saline 104 % of control | dose: 400.0 mg/kg/injection, schedule: Q01DX001 (ip), vehicle: saline 109 % of control

OC1CCC2CC2C1 (stereo unspecified)
inactive: [14] 108 % of control | dose: 100.0 mg/kg/injection, schedule: Q01DX009 (ip), vehicle: saline 102 % of control | [15] 108 % of control

CCOC(=O)CCc1nc(C)ncc1C(=O)OCC
inactive: [16] 104 % of control | [13] 106 % of control | [10] 100 % of control | [14] 91 % of control | [15] 87 % of control

CCOP(=O)(CC(=O)c1cc2ccccc2[nH]1)OCC
inactive: dose: 12.5 mg/kg/injection, schedule: Q01DX009 (ip), vehicle: saline 100 % of control | dose: 25.0 mg/kg/injection, schedule: Q01DX009 (ip), vehicle: saline 92 % of control | [14] 106 % of control and 95 % of control | [15] 97 % of control

NC(=O)c1cnc(N)nc1
inactive: dose: 6.25 mg/kg/injection, schedule: Q01DX009 (ip), vehicle: saline with Tween-80 93 % of control | [16] 91 % of control | [13] 98 % of control | [10] 94 % of control | [11] 98 % of control | [12] 106 % of control

Source: PubChem BioAssay AID330 (DTP/NCI, 2004)
